These molecules were tested on rekombinante Oxidoreduktase aus Metschnikowia zobellii (assay: not given). Conditions: not given.
Format: biochemical
In the case of CCOC(=O)CCCCC(=O)CCCl [8-Chlor-6-oxo-octansäure-ethylester], the “des eingesetzten Substrats reduziert” value is reported as 55%.
CCOC(=O)C(=O)CCc1ccccc1 [Ethyl-2-oxo-4-phenyl-buttersäure] was tested, and the “des eingesetzten Substrats reduziert” value was 92%.
CCOC(=O)C(=O)c1ccccc1 [Ethylphenylglyoxylat] was tested, and the “des eingesetzten Substrats reduziert” value was 50%.

Same assay, conditions: Nach 48 h; 25 °C; two-phase system
With O=C(CCl)c1ccccc1 [2-Chlor-1-phenyl-ethan-1-on] the “des eingesetzten Substrats reduziert” value was 75%.

The molecules below were run on Oxidoreduktase aus Metschnikowia zobellii (assay: Substrate spectrum (relative enzyme activity, standard assay of Example 5.1)). Conditions: not given.
Format: biochemical
With O=C(CCl)CCCl [1,4-Dichlor-butan-2-on] the “Relative Aktivität %” value was 27%.
CC(=O)Cc1ccccc1 [1-Phenyl-2-propanon] was tested, and the “Relative Aktivität %” value was 15%.
For O=C(CCl)c1cccc(Cl)c1 [2-chlor-1-(3-chlor-pheny)-ethan-1-on], the “Relative Aktivität %” value was 5%.
For CCOC(=O)CC(=O)CCl [4-Chloracetessigsäureethylester], the “Relative Aktivität %” value was 100%.
In the case of CCC(C)=O [Butan-2-on], the “Relative Aktivität %” value is reported as 0%.
O=C1CCCCC1 [Cyclohexanon] was tested, and the “Relative Aktivität %” value was 3%.

Same assay, conditions: activity with 2-Oxo-4-phenyl-buttersäureethylester set to 100%; NADPH; 25 °C
In the case of CC1CCCCC1=O (stereo not shown) [2-Methylcyclohexanon], the “Relative Aktivität %” value is reported as 8%.
CCOC(=O)C1CCCCC1=O (stereo not shown) [2-Oxo-cyclohexan-carbonsäure-ethylester] was tested, and the “Relative Aktivität %” value was 20%.
In the case of CCOC(=O)C1CCCC1=O (stereo not shown) [2-Oxo-cyclopentan carbonsäure-ethylester], the “Relative Aktivität %” value is reported as 8%.
For CC1CCCC(=O)C1 (stereo not shown) [3-Methylcyclohexanon], the “Relative Aktivität %” value was 8%.
In the case of COC(=O)CCCCC(=O)CC(=O)OC [3-Oxo-1,8-octandisäure-dimethylester], the “Relative Aktivität %” value is reported as 35%.
With CCOC(=O)CCCCC(=O)CCCl [8-Chlor-6-oxo-octansäure-ethylester] the “Relative Aktivität %” value was 50%.
In the case of CCOC(=O)C(=O)c1ccccc1Cl [(2-chlorphenyl)-oxo-essigsäure ethylester], the “Relative Aktivität %” value is reported as 50%.
CC(=O)c1ccccc1 [Acetophenon] was tested, and the “Relative Aktivität %” value was 0%.
With CCCCCCCC(=O)c1ccccc1 [Caprylophenon] the “Relative Aktivität %” value was 0%.
With CCOC(=O)C(=O)CCc1ccccc1 [Ethyl-2-oxo-4-phenyl-buttersäure] the “Relative Aktivität %” value was 100%.
In the case of CCCC(=O)C(=O)OCC [Ethyl-2-oxovaleriansäure], the “Relative Aktivität %” value is reported as 100%.
In the case of CCOC(=O)C(=O)c1ccccc1 [Ethylphenylglyoxylat], the “Relative Aktivität %” value is reported as 50%.

— patent EP1685248B1, “OXIDOREDUCTASE FROM METSCHNIKOWIA ZOBELLII” (IEP GmbH, priority 2003, dated 2005)
